Laboratory results: publication PMC10381170, “1,3,4-Oxadiazole and 1,3,4-Thiadiazole Nortopsentin Derivatives against Pancreatic Ductal Adenocarcinoma: Synthesis, Cytotoxic Activity, and Inhibition of CDK1” (Marine Drugs, 2023)

What was measured:
BxPC-3 cells = assay: SRB antiproliferative assay, BxPC-3; format: cell-based, human
Procedure: (§1) The cytotoxic activity of the nortopsentin derivatives 3b, 3e, 4c, 5b, and 6c on pancreatic cancer cells (BxPC-3, Panc-1, Suit-2, Capan-1, PaTu-T, primary PDAC-3 and resistant Panc-1-GR cells) was determined by the sulforhodamine B (SRB) chemosensitivity assay, as described previously. Cells were plated in 96-well flat-bottom plates at final concentrations ranging from 3000–5000 cells/well in 100 µL of medium. After a 24 h pre-incubation period, cells were treated with the compounds at nine screening concentrations (from 0.1 μM to 40 μM) in triplicate and incubated at 37 °C for 72 h. After the treatment, cells were fixed with 25 µL of cold 50% trichloroacetic acid (TCA) for each well and incubated at 4 °C for 1 h. Afterwards, plates were washed five times with demi-water and air-dried overnight. Then, the plates were stained with 50 µL of 0.4% SRB solution in 1% acetic acid for 15 min. The excess stain was rinsed off by placing the plates under running 1% acetic acid and allowed to dry at room temperature overnight. SRB staining was rinsed with 150 µL tris(hydroxymethyl)aminomethane solution pH = 8.8 (TRIS-base), and the optical density (OD) was read at 492 nm. Each assay was performed in triplicate and assays were repeated at least three times. The comparison of the average optical density of the growth in control wells with that in the sample wells allowed the estimation of the percentage of cell growth, using the following equation: % Cell Growth = (mean ODcompound − mean ODday zero plate)/(mean ODcells − mean ODday zero plate) × 100
(§2) The results obtained were adjusted by the day zero plate (wells containing cells growing for only 24 h) and normalized by the control cells (wells with untreated cells) to obtain the rate of viable cells.

Suit-2 cells = assay: SRB antiproliferative assay, Suit-2; format: cell-based, human
Procedure: as §1, §2

[1] = test system: normal human skin fibroblasts Hs27; assay: SRB cytotoxicity on normal fibroblasts; format: cell-based
Procedure: The compound was tested at eight different concentrations ranging from 0.31 μM to 40 μM using the SRB assay. […] At the highest concentration tested (40 μM), only 18% growth inhibition was observed after 72 h of exposure. […] These findings provide evidence of the potential safety of compound 3b for further development as a therapeutic agent.
as §1

PaTu-T cells = assay: SRB antiproliferative assay, PaTu-T; format: cell-based, human
Procedure: as §1, §2

PDAC cells = assay: SRB antiproliferative assay, whole PDAC panel; format: cell-based; conditions: Homo sapiens; seven PDAC models, 72 h; read-out: IC50 values, range over the PDAC cell panel
Procedure: as §1, with “The comparison of the average optical density of the growth in control wells with that in the sample wells allowed the estimation of the percentage of cell growth, using the following equation: % Cell Growth = (mean ODcompound − mean ODday zero plate)/(mean ODcells − mean ODday zero plate) × 100” left out

Work on Cn1cc(-c2nnc(-c3cn(C)c4ncccc34)o2)c2ccccc21 [3b, 1-methyl-3-[5-(1-methyl-1H-indol-3-yl)-1,3,4-oxadiazol-2-yl]-7-azaindole] yielded a Cell growth percentage (BxPC-3 cells; BxPC-3, 10 μM, 72 h exposure) of 11.10%, an IC50 (BxPC-3 cells; Homo sapiens, BxPC-3, 72 h, mean ± SEM, read-out: Half-maximal inhibitory concentration (IC50)) of 2100 ± 6 nM and an IC50 (Suit-2 cells; Homo sapiens, Suit-2, 72 h, mean ± SEM, read-out: Half-maximal inhibitory concentration (IC50)) of 1400 ± 740 nM. For the same compound, the Cell growth percentage (Suit-2 cells; Suit-2, 10 μM, 72 h exposure) was 18.34%, the growth inhibition ([1]; Hs27, 40 μM (highest concentration), 72 h) was 18% and the “cytotoxicity towards normal fibroblast cells” value ([1]; Hs27, 0.31-40 μM) was “relatively non-toxic”. It also gave a cell growth rate ([1]; Hs27, concentrations below 10 μM, 72 h) of about 100%, a Cell growth percentage (PaTu-T cells; 10 μM, 72 h exposure) of 17.13% and an IC50 (PaTu-T cells; Homo sapiens, 72 h, mean ± SEM, read-out: Half-maximal inhibitory concentration (IC50)) of 3200 ± 420 nM. For the same compound, the IC50 (PDAC cells) was 1400 to 8100 nM.
